The values below come from patent US9657081B2, “Inhibiting peptides derived from triggering receptor expressed on myeloid cells-1 (TREM-1) TREM-like transcript 1 (TLT-1) for treatment of cardiovascular diseases” (INSERM (Institut National de la Sante et de la Recherche …, priority 2013, dated 2017).

Holding throughout (type): in vivo
For assay [1], the system named is TREM-1. Briefly: Rat model of sepsis-induced cardiac dysfunction, intrinsic cardiac function by Millar catheter. Details: dpdtmax/Ved / PRSW: unit not given beside the values; FEVG / ESPVR: unit not given here. The source says: TREM-1- and TLT-1-derived peptides administration during rat model of sepsis-induced cardiac dysfunction is associated with an increase of intrinsic cardiac function measured by Millar catheter (FEVG, ESPVR, dpdtmax/Ved, PRSW).
(§1) Rats were anaesthetized with isoflurane and a 2 F high-fidelity micro-manometer catheter (SPR-407, Millar Institute, Houston, Tex., USA) was inserted into the LV via the right carotid artery. The Millar catheter was connected to a Harvard Data Acquisition System interfaced with a PC with the AcqKnowledge III software (ACQ 3.2).

Assay [2] relates to TREM-1. Briefly: Rat model of myocardial ischemia-reperfusion, cardiac function by conductance catheter. More on the design: PRSW: unit not given beside the values; Emax / ESPVR: unit not given here. Conditions: six weeks after ischemia-reperfusion; 3 mg/kg once a day for 5 days. How it is done: Adult male Wistar rats were subjected to myocardial ischemia-reperfusion and were randomly grouped (n=10) to receive repeated TREM-1- and TLT-1-derived peptides (3 mg/kg in 0.2 mL NaCl 0.9% once a day for 5 days) or scrambled-LR12 (3 mg/kg in 0.2 mL NaCl 0.9% once a day for 5 days). Six weeks after myocardial injury, cardiac function was investigated under anaesthesia by using a conductance catheter. Emax, ESPVR, and PRSW were higher in animals treated with TREM-1- and TLT-1-derived peptides than in control rats. All p<0.02 [controls versus LR12]).
Animals received same surgery than in permanent ischemia, but with reperfusion of ischemic area by release of the LAD ligation after 60 minutes of ischemia. The same protocol as described above was then applied.
as §1
To investigate the role of TREM-1- and TLT-1-derived peptides in a more relevant model of MI, we performed a transient coronary artery ligation (ischemia-reperfusion model: IR) in rats. After randomisation, animals were then imaged under anaesthesia (micro-TEP) and administered with TREM-1- and TLT-1-derived peptides (3 mg/kg daily for 5 days i.p.) or LR12-scrambled peptide. Imaging was then repeated at 6 weeks before we studied cardiac function by using a conductance catheter (Millar).

Assay [3] addresses T1, TREM-1 (Mus musculus, UniProt Q9JKE2).
T1 construct: endogenous in cells; host or cells: living mice (C57BL, Balb/c, ApoE-/-), in vivo
T1 sequence (Q9JKE2 21-230): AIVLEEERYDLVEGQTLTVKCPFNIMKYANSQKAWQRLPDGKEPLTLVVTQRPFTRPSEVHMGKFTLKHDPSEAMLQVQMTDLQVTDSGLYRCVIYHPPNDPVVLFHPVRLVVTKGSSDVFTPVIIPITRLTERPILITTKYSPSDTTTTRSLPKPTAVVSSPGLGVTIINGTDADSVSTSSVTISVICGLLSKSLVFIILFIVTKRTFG
In words: Mouse model of myocardial infarction, survival. To be noted: 100 μg daily for 5 days i.p. The protocol: Adult male Balb/c mice (20-23 g) were subjected to myocardial ischemia and were randomly grouped (n=10-15 per group) to receive repeated TREM-1- and TLT-1-derived peptides (100 μg in 0.2 mL NaCl 0.9% once a day for 5 days), scrambled-LR12 (100 μg in 0.2 mL NaCl 0.9% once a day for 5 days), or 10 μg anti-TREM-1 mAb in 0.2 mL NaCl 0.9% i.p. injections. Survival was monitored over 1 wk and analyzed by Log Rank test. (There were no deaths after the 5th day). Data are representative of at least 15 different experiments.
All procedures were performed on mice male C57BL/C ranging in age from 6-8 weeks. Mice were anesthetized by an intraperitoneal injection of xylazine (60 mg/kg) and fixed in supine position. The trachea was intubated and ventilated (the tidal volume was 200 μl/25 g and the respiratory rate was 120 breaths/min). After a left thoracotomy, the left coronary artery was identified and ligated with an 8-0 prolene surgical suture at 1.0 mm distal from tip of the left auricle. LAD occlusion was confirmed by a change in myocardial color from red to white in the ischemia area (Left ventricle). The chest was closed and the skin was sutured with 6-0 silk. […]
Mice were monitored after surgery for mortality. Mice were randomized to receive or not peptides (daily ip injection for 5 days, 5 mg/kg) and monitored for survival. […]

In the assay on TREM-1 [1], “EDAGEY (listed as Homo sapiens) [TLT1-LR6-2]” displayed an ESPVR of 2.3 ± 0.2, an FEVG of 75 ± 5.9, a PRSW of 139 ± 10 and a dpdtmax/Ved of 155 ± 12. In the assay on TREM-1 [2], this substance yielded an ESPVR of 1.8 ± 0.1, an Emax of 6.5 ± 0.9 and a PRSW of 99 ± 8.
As for “EDSGLY (listed as Homo sapiens) [TREM1-LP6-2]”, in the assay with TREM-1 [1], the ESPVR is 2.7 ± 0.1, the FEVG is reported as 79.4 ± 9.9, the PRSW is 144 ± 6 and the dpdtmax/Ved was found to be 155 ± 15. In the assay with TREM-1 [2], this substance returned an ESPVR of 2.2 ± 0.1, an Emax of 6 ± 0.6 and a PRSW of 104 ± 5.
Consider “ELMEGGQECADY (synthetic peptide scramble) [TLT-1-LR12scr, reference compound]”, for which, in the assay on TREM-1 [1], the ESPVR is 1.6 ± 0.3, the FEVG was found to be 39.9 ± 4.9, the PRSW was 88 ± 8 and the dpdtmax/Ved came out at 61 ± 12. Moreover, in the assay with TREM-1 [2], the ESPVR worked out at 1.1 ± 0.3, the Emax is reported as 2.7 ± 0.3 and the PRSW worked out at 65 ± 8. In addition, in the assay with TREM-1 [3], the mice died came out at 40%.
For the substance “GEYGCM (listed as Homo sapiens) [TLT-1LR6-3]”, in the assay on TREM-1 [1], the ESPVR was found to be 2.2 ± 0.2, the FEVG is 78 ± 8.7, the PRSW was determined as 149 ± 6 and the dpdtmax/Ved was 157 ± 10. Further, in the assay on TREM-1 [2], the ESPVR is given as 1.7 ± 0.3, the Emax is listed as 5.2 ± 0.4 and the PRSW turned out to be 109 ± 6.
In the assay with TREM-1 [1], “GLYQCV (listed as Homo sapiens) [TREM1-LP6-3]” had an ESPVR of 2.9 ± 0.4, an FEVG of 78.6 ± 7.4, a PRSW of 139 ± 8 and a dpdtmax/Ved of 163 ± 10. In the assay on TREM-1 [2], the ESPVR amounted to 2.3 ± 0.4, the Emax is recorded as 5.8 ± 0.5 and the PRSW stood at 99 ± 8.
In the assay on TREM-1 [1], “LQEEDA (listed as Homo sapiens) [TLT1-LR6-1]” registered an ESPVR of 2.9 ± 0.3, an FEVG of 79.6 ± 7.4, a PRSW of 142 ± 8 and a dpdtmax/Ved of 160 ± 15. In the assay on TREM-1 [2], this substance showed an ESPVR of 2.4 ± 0.4, an Emax of 4.5 ± 0.6 and a PRSW of 102 ± 6.
In the assay with TREM-1 [1], “LQEEDAGEYGCMVDGAR (listed as Homo sapiens) [TLT1-LR17]” came in with an ESPVR of 2.5 ± 0.3, an FEVG of 75.6 ± 7.2, a PRSW of 145 ± 6 and a dpdtmax/Ved of 150 ± 12. In the assay with TREM-1 [2], the ESPVR is reported as 2 ± 0.2, the Emax is listed as 5.1 ± 0.6 and the PRSW turned out to be 105 ± 6.
As to “LQVEDS (listed as Homo sapiens) [TREM1-LP6-1]”, in the assay with TREM-1 [1], the ESPVR is 2.5 ± 0.3, the FEVG worked out at 76 ± 5.9, the PRSW is on record as 145 ± 6 and the dpdtmax/Ved turned out to be 150 ± 20. Besides, in the assay on TREM-1 [2], the ESPVR is given as 2 ± 0.3, the Emax turned out to be 5.5 ± 0.4 and the PRSW is listed as 105 ± 6.
In the assay on TREM-1 [1], “LQVEDSGLYQCV (listed as Homo sapiens) [TREM1-LP12]” registered an ESPVR of 2.8 ± 0.2, an FEVG of 72 ± 9.4, a PRSW of 139 ± 6 and a dpdtmax/Ved of 158 ± 18. For the same substance, in the assay on TREM-1 [2], the ESPVR worked out at 2.3 ± 0.4, the Emax is recorded as 4.5 ± 0.4 and the PRSW was 99 ± 4.
Turning to “LQVEDSGLYQCVIYQPP (listed as Homo sapiens) [TREM1-LP17]”, in the assay with TREM-1 [1], the ESPVR came to 2.7 ± 0.3, the FEVG is reported as 75.9 ± 8.9, the PRSW is reported as 150 + 8 and the dpdtmax/Ved is recorded as 156 ± 11. In the assay with TREM-1 [2], this substance came in with an ESPVR of 2.2 ± 0.3, an Emax of 5.9 ± 0.8 and a PRSW of 110 ± 5.
